Source: patent US4231958A, “Ureylene phenylene anionic naphthalenesulfonic acids” (American Cyanamid Company, priority 1979, dated 1980)
Where a name gives a salt, the structure may show the parent alone.

Tests used:
[1] = tested on: late components of human complement (C3-C9); assay: Test Code 035 (C3-C9 inhibitor), lysis of EAC 142; assay type: biochemical; settings: serial twofold dilution assay; higher well number indicates higher activity
Source text: (§1) An active inhibitor protects C2 from C1 and C4; (ii) Test Code 035 (C3-C9 inhibitor)--This test determines the ability of the late components of human complement (C3-C9) to lyse EAC 142 in the presence of appropriate dilutions of the test compound. An active inhibitor protects EAC 142 from lysis by human C3-C9; (iii) Test Code 036 (C-Shunt inhibitor)--In this test human erythrocytes rendered fragile are lysed in autologous serum via the shunt pathway activated by cobra venom factor in the presence of appropriate dilutions of the test compound. Inhibition of the shunt pathway results in failure of lysis; (iv) Forssman Vasculitis Test--Here, the well known complement dependent lesion, Forssman vasculitis, is produced in guinea pigs by intradermal injection of rabbit anti-Forssman antiserum. The lesion is measured in terms of diameter, edema and hemorrhage and the extent to which a combined index of these is inhibited by prior intraperitoneal injection of the test compound at 200 mg/kg is then reported, unless otherwise stated; (v) Forssman Shock Test--Lethal shock is produced in guinea pigs by an i.v. injection of anti-Forssman antiserum and the harmonic mean death time of treated guinea pigs is compared with that of simultaneous controls; (vi) Complement Level Reduction Test--In this test, the above dosed guinea pigs, or others, are bled for serum and the complement level is determined in undiluted serum by the capillary tube method of U.S. Pat. No. 3,876,376 and compared to undosed control guinea pigs; and (vii) Cap 50 Test--Here, appropriate amounts of the test compound are added to a pool of guinea pig serum in vitro, after which the undiluted serum capillary tube assay referred to above is run. The concentration of compound inhibiting 50% is reported.

[2] = tested on: shunt pathway activated by cobra venom factor; assay: Test Code 036 (C-Shunt inhibitor), lysis of human erythrocytes in autologous serum, cobra venom factor; assay type: cell-based; settings: serial twofold dilution assay; higher well number indicates higher activity
Source text: as §1

activated human C1 = biological target: T1, activated human C1 (Homo sapiens, UniProt P09871); assay: Test Code 026 (C1-inhibitor); assay type: biochemical; settings: serial twofold dilution assay; higher well number indicates higher activity
T1 construct: cleavage of fluid-phase human C2 in presence of C4
Source text: as §1

complement system = settings: known from the literature; cited from earlier work

T1 sequence (P09871 16-688): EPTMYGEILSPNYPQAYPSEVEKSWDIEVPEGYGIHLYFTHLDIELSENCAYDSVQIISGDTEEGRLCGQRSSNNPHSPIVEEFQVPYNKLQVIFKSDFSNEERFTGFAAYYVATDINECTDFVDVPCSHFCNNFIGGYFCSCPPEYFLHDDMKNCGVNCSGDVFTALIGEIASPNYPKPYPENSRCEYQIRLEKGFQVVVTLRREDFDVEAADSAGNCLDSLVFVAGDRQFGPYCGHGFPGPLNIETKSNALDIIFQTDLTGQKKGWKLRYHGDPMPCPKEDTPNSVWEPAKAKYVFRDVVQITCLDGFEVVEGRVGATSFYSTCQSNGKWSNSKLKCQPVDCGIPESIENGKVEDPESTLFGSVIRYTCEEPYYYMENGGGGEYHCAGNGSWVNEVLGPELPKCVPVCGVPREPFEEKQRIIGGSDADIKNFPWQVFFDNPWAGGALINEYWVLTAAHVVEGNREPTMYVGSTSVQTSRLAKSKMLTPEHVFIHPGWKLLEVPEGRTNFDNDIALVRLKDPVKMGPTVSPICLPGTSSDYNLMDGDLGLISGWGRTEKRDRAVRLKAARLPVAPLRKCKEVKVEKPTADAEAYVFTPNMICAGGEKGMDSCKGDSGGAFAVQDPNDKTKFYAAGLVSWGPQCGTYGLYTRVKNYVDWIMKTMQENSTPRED
T1 sequence (P00736 18-705 partner): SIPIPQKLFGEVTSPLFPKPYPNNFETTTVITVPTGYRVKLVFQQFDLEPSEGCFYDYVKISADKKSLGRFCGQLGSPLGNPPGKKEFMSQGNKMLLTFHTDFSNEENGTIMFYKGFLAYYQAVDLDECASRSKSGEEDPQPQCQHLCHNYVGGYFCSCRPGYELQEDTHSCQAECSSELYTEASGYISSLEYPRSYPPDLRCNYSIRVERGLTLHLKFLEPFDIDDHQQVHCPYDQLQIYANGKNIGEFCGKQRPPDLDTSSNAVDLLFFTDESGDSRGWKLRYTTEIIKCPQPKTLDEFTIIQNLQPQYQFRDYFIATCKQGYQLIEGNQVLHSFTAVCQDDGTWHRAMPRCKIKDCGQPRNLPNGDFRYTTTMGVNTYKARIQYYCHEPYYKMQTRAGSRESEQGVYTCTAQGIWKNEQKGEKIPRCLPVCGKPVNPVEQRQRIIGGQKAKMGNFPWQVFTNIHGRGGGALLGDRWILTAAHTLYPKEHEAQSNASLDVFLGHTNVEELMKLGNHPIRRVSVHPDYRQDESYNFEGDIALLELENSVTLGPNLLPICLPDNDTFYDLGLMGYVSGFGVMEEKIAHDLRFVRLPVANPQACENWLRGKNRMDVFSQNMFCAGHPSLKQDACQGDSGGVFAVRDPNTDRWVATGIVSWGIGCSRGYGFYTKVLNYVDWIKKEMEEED
T1 sequence (P02745 23-245 partner): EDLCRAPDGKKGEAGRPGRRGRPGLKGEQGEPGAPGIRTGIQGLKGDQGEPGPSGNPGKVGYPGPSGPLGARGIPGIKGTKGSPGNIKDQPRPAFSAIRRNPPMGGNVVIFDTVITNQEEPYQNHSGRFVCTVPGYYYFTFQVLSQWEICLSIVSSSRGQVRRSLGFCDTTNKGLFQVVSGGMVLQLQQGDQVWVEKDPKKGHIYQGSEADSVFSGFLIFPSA
T1 sequence (P02746 28-253 partner): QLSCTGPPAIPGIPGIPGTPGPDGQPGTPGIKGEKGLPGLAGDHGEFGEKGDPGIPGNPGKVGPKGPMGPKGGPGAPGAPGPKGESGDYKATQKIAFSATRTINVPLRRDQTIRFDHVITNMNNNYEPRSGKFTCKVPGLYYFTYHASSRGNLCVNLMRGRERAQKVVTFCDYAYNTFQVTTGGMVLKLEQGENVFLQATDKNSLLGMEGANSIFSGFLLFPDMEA
T1 sequence (P02747 29-245 partner): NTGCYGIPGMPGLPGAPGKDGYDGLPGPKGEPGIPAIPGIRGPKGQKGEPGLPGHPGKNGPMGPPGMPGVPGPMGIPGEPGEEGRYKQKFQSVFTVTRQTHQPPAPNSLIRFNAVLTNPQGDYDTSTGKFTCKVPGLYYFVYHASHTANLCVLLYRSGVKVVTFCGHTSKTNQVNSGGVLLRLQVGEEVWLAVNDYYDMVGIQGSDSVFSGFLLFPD

SMILES	C-Late 035* Wells [1]	Shunt Inhibition 036* Wells [2]	Cl 026* Wells (activated human C1)	activity as a complement inhibitor (complement system)
Cc1ccc(S(=O)(=O)Nc2ccc(S(=O)(=O)O)c3cc(S(=O)(=O)O)cc(S(=O)(=O)O)c23)cc1NS(=O)(=O)c1cccc(NC(=O)Nc2cccc(S(=O)(=O)Nc3cc(S(=O)(=O)Nc4ccc(S(=O)(=O)O)c5cc(S(=O)(=O)O)cc(S(=O)(=O)O)c45)ccc3C)c2)c1 [8,8'-[Ureylenebis[(m-phenylenesulfonylimino) (4-methyl-3,1-phenylenesulfonyl)imino]]di-1,3,5-naphthalenetrisulfonic acid, hexasodium salt]	+1 Wells	N	+3 Wells	–
O=C(Nc1cccc(S(=O)(=O)Nc2cccc(S(=O)(=O)Nc3cc(S(=O)(=O)O)cc4cc(S(=O)(=O)O)cc(S(=O)(=O)O)c34)c2)c1)Nc1cccc(S(=O)(=O)Nc2cccc(S(=O)(=O)Nc3cc(S(=O)(=O)O)cc4cc(S(=O)(=O)O)cc(S(=O)(=O)O)c34)c2)c1 [8,8'-[Ureylenebis[[(1,3-phenylenesulfonylimino)-1,3-phenylenesulfonyl]imino]]di-1,3,6-naphthalenetrisulfonic acid, hexasodium salt]	+5 Wells	+1 Wells	+4 Wells	–
Cc1ccc(NC(=O)Nc2ccc(C)c(S(=O)(=O)Nc3ccc(C)c(S(=O)(=O)Nc4cc(S(=O)(=O)[O-])cc5cc(S(=O)(=O)[O-])cc(S(=O)(=O)[O-])c45)c3)c2)cc1S(=O)(=O)Nc1ccc(C)c(S(=O)(=O)Nc2cc(S(=O)(=O)[O-])cc3cc(S(=O)(=O)[O-])cc(S(=O)(=O)[O-])c23)c1.[Na+].[Na+].[Na+].[Na+].[Na+].[Na+] [8,8'-[Ureylenebis[[[(6-methyl-3,1-phenylene)sulfonyl]imino]-[[(6-methyl-3,1-phenylene)sulfonyl]imino]]]di-1,3,6-naphthalenetrisulfonic acid, hexasodium salt]	+1 Wells	N	+3 Wells	–
Cc1ccc(C(=O)Nc2ccc(S(=O)(=O)O)c3cc(S(=O)(=O)O)cc(S(=O)(=O)O)c23)cc1NC(=O)c1cccc(NC(=O)Nc2cccc(C(=O)Nc3cc(C(=O)Nc4ccc(S(=O)(=O)O)c5cc(S(=O)(=O)O)cc(S(=O)(=O)O)c45)ccc3C)c2)c1 [Suramin, reference compound]	+2 Wells	–	+4 Wells	moderately active
